Laboratory results as given in patent publication US11635429B2 (priority 2019, dated 2023).

Test system: anti-diacetoxyscirpenol monoclonal antibody secreted by hybridoma cell strain DAS5G11E7
Format: binding, mouse

| Compound | Cross reactivity |
| --- | --- |
| 3-acetyldeoxynivalenol [3-acetyl-DON] | <0.01% |
| CC1=CC2O[C@@H]3[C@H](O)C[C@](C)(C2(CO)C(O)C1=O)[C@]31CO1 (stereo partly shown) [DON, vomitoxin] | <0.01% |
| C[C@@H]1Cc2c(Cl)cc(C(=O)N[C@@H](Cc3ccccc3)C(=O)O)c(O)c2C(=O)O1 [OTA, ochratoxin] | <0.01% |
| HT-2 toxin | <0.01% |
